Results published in paper PMC7891710, “The narrow-spectrum anthelmintic oxantel is a potent agonist of a novel acetylcholine receptor subtype in whipworms” (PLoS Pathogens, 2021).

What was measured:
[1] = molecular target: T1, Tsu-ACR-16-like receptor (O-AChR) (Trichuris suis, UniProt A0A890W0I7); assay: two-electrode voltage clamp in Xenopus oocytes, agonist dose-response (partial, Imax […]); format: cell-based
T1 construct: full-length Tsu-ACR-16-like (GenBank MT386096), homomeric channel co-expressed with Asu-RIC-3 in Xenopus laevis oocytes

[2] = molecular target: T1, Tsu-ACR-16-like receptor (O-AChR); assay: two-electrode voltage clamp in Xenopus oocytes, agonist dose-response; format: cell-based

T1 sequence (A0A890W0I7 entry or part of it): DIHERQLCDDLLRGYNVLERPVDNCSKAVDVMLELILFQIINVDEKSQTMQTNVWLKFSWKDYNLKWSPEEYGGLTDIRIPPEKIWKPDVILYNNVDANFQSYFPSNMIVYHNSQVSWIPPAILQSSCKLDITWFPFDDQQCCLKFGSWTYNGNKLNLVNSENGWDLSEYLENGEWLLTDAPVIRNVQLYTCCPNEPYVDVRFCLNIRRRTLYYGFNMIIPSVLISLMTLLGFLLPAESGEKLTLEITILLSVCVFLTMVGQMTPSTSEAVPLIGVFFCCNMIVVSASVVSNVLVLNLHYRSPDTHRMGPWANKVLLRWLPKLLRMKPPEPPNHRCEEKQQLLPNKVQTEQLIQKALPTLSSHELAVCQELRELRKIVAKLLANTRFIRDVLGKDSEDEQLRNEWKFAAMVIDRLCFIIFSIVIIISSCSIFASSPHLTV

| SMILES | EC50 [1] | EC50 [2] |
| --- | --- | --- |
| CN1CCCN=C1/C=C/c1cccs1 [pyr, pyrantel] | 148 µM | – |
| CC(=O)OCC[N+](C)(C)C [ACh, acetylcholine] | – | 14.5 µM |
| CN1CCCN=C1/C=C/c1cccc(O)c1 [oxa, oxantel] | – | 9.49 µM |
